In patent US20020137929A1, “1 - (3-heterocyclylphenyl) isothiourea, -isourea, -guanidine and -amidine herbicidal agents” (Intellectual Property Department, BASF Aktiengesellschaft, priority 1998, published 2002):

Legend:
ABUTH (Velvetleaf) [1] = test: Preemergence herbicidal evaluation; format: in vivo, Abutilon theophrasti; conditions: rated 4-5 weeks after treatment
Procedure, shortened: (§1)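 Herbicidal effect scored visually, 0-9, at 4 to 5 weeks against a control; compound applied preemergence by aqueous acetone spray to seeded soil at about 0.0156 to 0.500 kg/ha.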

CASOB (Sicklepod) = test: Preemergence herbicidal evaluation; format: in vivo, Cassia obtusifolia; conditions: rated 4-5 weeks after treatment
Procedure, shortened: as §1

[2] = system: TRZAWR (Wheat, Winter, cv Riband); test: Postemergence herbicidal evaluation; format: in vivo, Triticum aestivum
Procedure, shortened: (§2)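 Scores (0–9) reflect plant stand, vigor, malformation, size, chlorosis and general appearance relative to control, read 4 to 5 weeks after treatment and averaged where tests were repeated. Application: about 0.0156–0.500 kg/ha sprayed at 40 psi onto two-week seedlings.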

[3] = system: SAGPY (Arrowhead (Pygmaea)); test: Preemergence weed control under flooded paddy conditions; format: in vivo, Sagittaria pygmaea; conditions: rated 3-4 weeks after treatment
Procedure, shortened: (§3)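 Ratings on a 0-9 visual scale cover stand, vigor, malformation, size, chlorosis and overall appearance relative to a control, taken three to four weeks post-treatment. Application was into flood water over freshly sown silt loam at roughly 0.0313 to 0.500 kg/ha.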

CYPIR (Rice Flatsedge) = test: Postemergence weed control under flooded paddy conditions; format: in vivo, Cyperus iria; conditions: postemergence weeds, 3-4 weeks after treatment
Procedure, shortened: (§4)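 Herbicidal effect is judged by eye on a 0–9 scale versus control, 3–4 weeks after dosing. Dosing is into flood water kept 1.5–3 cm over the soil, at about 0.0313–0.500 kg/ha in aqueous/acetone 50/50 v/v, on 3–5 cm weeds and 1.5–2.5-leaf rice seedlings.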

ABUTH (Velvetleaf) [4] = test: Postemergence herbicidal evaluation; format: in vivo, Abutilon theophrasti
Procedure, shortened: as §2

[5] = system: GLXMAW (Soybean, Williams); test: Postemergence herbicidal evaluation; format: in vivo, Glycine max, (L.) Merr. cv Williams
Procedure, shortened: as §2

ORYSAT (Rice, Tebonnet) = test: Postemergence herbicidal evaluation; format: in vivo, Oryza sativa, (L.) Tebonnet
Procedure, shortened: as §2

[6] = system: SAGPY (Arrowhead (Pygmaea)); test: Postemergence weed control under flooded paddy conditions; format: in vivo, Sagittaria pygmaea; conditions: postemergence weeds, 3-4 weeks after treatment
Procedure, shortened: as §4

ECHCG (Barnyardgrass) = test: Postemergence herbicidal evaluation; format: in vivo, Echinochloa crus-galli
Procedure, shortened: as §2

AMBEL (Ragweed, Common) = test: Postemergence herbicidal evaluation; format: in vivo, Ambrosia artemisifolia
Procedure, shortened: as §2

SETVI (Foxtail, Green) [7] = test: Postemergence herbicidal evaluation; format: in vivo, Setaria viridis
Procedure, shortened: as §2

MOOVA (Monochoria) = test: Preemergence weed control under flooded paddy conditions; format: in vivo, Monochoria vaginalis; conditions: rated 3-4 weeks after treatment
Procedure, shortened: as §3

SETVI (Foxtail, Green) [8] = test: Preemergence herbicidal evaluation; format: in vivo, Setaria viridis; conditions: rated 4-5 weeks after treatment
Procedure, shortened: as §1

Question: Which “Preemergence herbicidal rating ABUTH” value (ABUTH (Velvetleaf) [1]; rate 0.0156 kg/ha) does the source give for CCOC(=O)CN1C(=O)C(CC(=O)OC)S/C1=N/c1cc(-n2c(=O)cc(C(F)(F)F)n(C)c2=O)c(F)cc1Cl (stereo not shown) [Compound 54, 2-{{2-Chloro-5-[3,6-dihydro-3-methyl-2,6-dioxo-4-(trifluoromethyl)-1(2H)-pyrimidinyl]-4-fluorophenyl}imino}-4-oxo-3,5-thiazolidinediacetic acid, 3-ethyl methyl ester] here?
Answer: 4.5

Question: And the “Preemergence herbicidal rating ABUTH” value (ABUTH (Velvetleaf) [1]; rate 0.0313 kg/ha)?
Answer: 7.5

Question: What about the “Preemergence herbicidal rating ABUTH” value (ABUTH (Velvetleaf) [1]; rate 0.0625 kg/ha) of the same molecule?
Answer: 9.0

Question: And the “Preemergence herbicidal rating ABUTH” value (ABUTH (Velvetleaf) [1]; rate 0.1250 kg/ha)?
Answer: 9.0

Question: What about the “Preemergence herbicidal rating ABUTH” value (ABUTH (Velvetleaf) [1]; rate 0.2500 kg/ha) of the same molecule?
Answer: 9.0

Question: And the “Preemergence herbicidal rating ABUTH” value (ABUTH (Velvetleaf) [1]; rate 0.5000 kg/ha)?
Answer: 9.0

Question: What about the “Preemergence herbicidal rating CASOB” value (CASOB (Sicklepod); rate 0.0156 kg/ha) of the same molecule?
Answer: 0.0

Question: What about the “Preemergence herbicidal rating CASOB” value (CASOB (Sicklepod); rate 0.0313 kg/ha) of the same molecule?
Answer: 0.0

Question: What about the “Preemergence herbicidal rating CASOB” value (CASOB (Sicklepod); rate 0.0625 kg/ha) of the same molecule?
Answer: 0.0

Question: And the “Preemergence herbicidal rating CASOB” value (CASOB (Sicklepod); rate 0.1250 kg/ha)?
Answer: 4.5

Question: And the “Preemergence herbicidal rating CASOB” value (CASOB (Sicklepod); rate 0.2500 kg/ha)?
Answer: 6.0

Question: What about the “Preemergence herbicidal rating CASOB” value (CASOB (Sicklepod); rate 0.5000 kg/ha) of the same molecule?
Answer: 9.0

Question: What about the “Postemergence herbicidal rating TRZAWR” value ([2]; Rate 0.0158 kg/ha) of the same molecule?
Answer: 5.0

Question: And the “Postemergence herbicidal rating TRZAWR” value ([2]; Rate 0.0315 kg/ha)?
Answer: 7.0

Question: What about the “Postemergence herbicidal rating TRZAWR” value ([2]; Rate 0.0630 kg/ha) of the same molecule?
Answer: 9.0

Question: And the “Herbicidal rating SAGPY” value ([3]; 0.0313 kg/ha)?
Answer: 0.0

Question: And the “Herbicidal rating SAGPY” value ([3]; 0.0625 kg/ha)?
Answer: 0.0

Question: What about the “Herbicidal rating SAGPY” value ([3]; 0.1250 kg/ha) of the same molecule?
Answer: 0.0

Question: What about the “Herbicidal rating SAGPY” value ([3]; 0.2500 kg/ha) of the same molecule?
Answer: 2.0

Question: And the “Herbicidal rating CYPIR” value (CYPIR (Rice Flatsedge); rate 0.0313 kg/ha)?
Answer: 0.0

Question: What about the “Herbicidal rating CYPIR” value (CYPIR (Rice Flatsedge); rate 0.0625 kg/ha) of the same molecule?
Answer: 4.0

Question: What about the “Herbicidal rating CYPIR” value (CYPIR (Rice Flatsedge); rate 0.1250 kg/ha) of the same molecule?
Answer: 4.0

Question: What about the “Herbicidal rating CYPIR” value (CYPIR (Rice Flatsedge); rate 0.2500 kg/ha) of the same molecule?
Answer: 4.0

Question: What about the “Postemergence herbicidal rating ABUTH” value (ABUTH (Velvetleaf) [4]; Rate 0.0158 kg/ha) of the same molecule?
Answer: 9.0

Question: And the “Postemergence herbicidal rating ABUTH” value (ABUTH (Velvetleaf) [4]; Rate 0.0315 kg/ha)?
Answer: 9.0

Question: And the “Postemergence herbicidal rating ABUTH” value (ABUTH (Velvetleaf) [4]; Rate 0.0630 kg/ha)?
Answer: 9.0

Question: And the “Postemergence herbicidal rating GLXMAW” value ([5]; Rate 0.0158 kg/ha)?
Answer: 9.0

Question: What about the “Postemergence herbicidal rating GLXMAW” value ([5]; Rate 0.0315 kg/ha) of the same molecule?
Answer: 9.0

Question: And the “Postemergence herbicidal rating GLXMAW” value ([5]; Rate 0.0630 kg/ha)?
Answer: 9.0

Question: And the “Postemergence herbicidal rating ORYSAT” value (ORYSAT (Rice, Tebonnet); Rate 0.0158 kg/ha)?
Answer: 3.0

Question: What about the “Postemergence herbicidal rating ORYSAT” value (ORYSAT (Rice, Tebonnet); Rate 0.0315 kg/ha) of the same molecule?
Answer: 3.0

Question: What about the “Postemergence herbicidal rating ORYSAT” value (ORYSAT (Rice, Tebonnet); Rate 0.0630 kg/ha) of the same molecule?
Answer: 6.5

Question: And the “Herbicidal rating SAGPY” value ([6]; rate 0.0313 kg/ha)?
Answer: 0.0

Question: And the “Herbicidal rating SAGPY” value ([6]; rate 0.0625 kg/ha)?
Answer: 0.0

Question: And the “Herbicidal rating SAGPY” value ([6]; rate 0.1250 kg/ha)?
Answer: 0.0

Question: And the “Herbicidal rating SAGPY” value ([6]; rate 0.2500 kg/ha)?
Answer: 2.0

Question: And the “Postemergence herbicidal rating ECHCG” value (ECHCG (Barnyardgrass); Rate 0.0158 kg/ha)?
Answer: 9.0

Question: What about the “Postemergence herbicidal rating ECHCG” value (ECHCG (Barnyardgrass); Rate 0.0315 kg/ha) of the same molecule?
Answer: 9.0

Question: What about the “Postemergence herbicidal rating ECHCG” value (ECHCG (Barnyardgrass); Rate 0.0630 kg/ha) of the same molecule?
Answer: 9.0

Question: What about the “Postemergence herbicidal rating AMBEL” value (AMBEL (Ragweed, Common); Rate 0.0158 kg/ha) of the same molecule?
Answer: 9.0

Question: And the “Postemergence herbicidal rating AMBEL” value (AMBEL (Ragweed, Common); Rate 0.0315 kg/ha)?
Answer: 9.0

Question: What about the “Postemergence herbicidal rating AMBEL” value (AMBEL (Ragweed, Common); Rate 0.0630 kg/ha) of the same molecule?
Answer: 9.0

Question: What about the “Postemergence herbicidal rating SETVI” value (SETVI (Foxtail, Green) [7]; Rate 0.0158 kg/ha) of the same molecule?
Answer: 9.0

Question: What about the “Postemergence herbicidal rating SETVI” value (SETVI (Foxtail, Green) [7]; Rate 0.0315 kg/ha) of the same molecule?
Answer: 9.0

Question: What about the “Postemergence herbicidal rating SETVI” value (SETVI (Foxtail, Green) [7]; Rate 0.0630 kg/ha) of the same molecule?
Answer: 9.0

Question: And the “Herbicidal rating MOOVA” value (MOOVA (Monochoria); 0.0313 kg/ha)?
Answer: 0.0

Question: And the “Herbicidal rating MOOVA” value (MOOVA (Monochoria); 0.0625 kg/ha)?
Answer: 0.0

Question: What about the “Herbicidal rating MOOVA” value (MOOVA (Monochoria); 0.1250 kg/ha) of the same molecule?
Answer: 6.0

Question: And the “Herbicidal rating MOOVA” value (MOOVA (Monochoria); 0.2500 kg/ha)?
Answer: 6.0

Question: And the “Preemergence herbicidal rating SETVI” value (SETVI (Foxtail, Green) [8]; rate 0.0156 kg/ha)?
Answer: 1.0

Question: And the “Preemergence herbicidal rating SETVI” value (SETVI (Foxtail, Green) [8]; rate 0.0313 kg/ha)?
Answer: 2.0

Question: What about the “Preemergence herbicidal rating SETVI” value (SETVI (Foxtail, Green) [8]; rate 0.0625 kg/ha) of the same molecule?
Answer: 3.5

Question: What about the “Preemergence herbicidal rating SETVI” value (SETVI (Foxtail, Green) [8]; rate 0.1250 kg/ha) of the same molecule?
Answer: 7.0

Question: And the “Preemergence herbicidal rating SETVI” value (SETVI (Foxtail, Green) [8]; rate 0.2500 kg/ha)?
Answer: 9.0

Question: What about the “Preemergence herbicidal rating SETVI” value (SETVI (Foxtail, Green) [8]; rate 0.5000 kg/ha) of the same molecule?
Answer: 9.0
